The results in this text go back to patent US6514975B1, “Anti-inflammatory piperazinyl-benzyl-tetrazole derivatives and intermediates thereof” (Pfizer Inc, priority 1997, dated 2003).

The target in series [1] is T1, delta opioid receptor, mouse vas deferens (MVD)(δ) (Mus musculus, UniProt P32300).
T1 construct: tissue Charles River; host or cells: isolated mouse vas deferens (DC1 strain)
Description: delta opioid agonist activity in mouse vas deferens (inhibition of electrically-induced contractions). Conditions: isolated mouse vas deferens; inhibition of electrically-induced contractions in the presence of 300 nM mu-selective antagonist CTOP; measure of δ agonism. The protocol: Opioid (delta, mu and kappa) activity was studied in two isolated tissues, the mouse vas deferens (MVD)(δ) and the guinea-pig myentric plexus with attached longitudinal muscle (GPMP)(μ and κ).
MVD (DC1 strain, Charles River, 25-35 g) were suspended in 15 ml organ baths containing Mg^++-free Krebs' buffer of the following composition (mM): NaCl, 119; KCl, 4.7; NaHCO3, 25; KH2PO4, 1.2; CaCl2, 2,5 and glucose, 11. The buffer was gassed with 95% O2 and 5% CO2. The tissues were suspended between platinum electrodes, attached to an isometric transducer with 500 mg tension and stimulated with 0.03 Hz pulses of 1-msec pulse-width at supramaxinal voltage. IC50 values were determined by the regression analysis of concentration-response curves for inhibition of electrically-induced contractions in the presence of 300 nM of the mu-selective antagonist CTOP. This test is a measure of δ agonism.
The delta opioid agonist activity of a number of compounds were determined in mouse vas deferens (as described above) with the following results: […]

T1 sequence (P32300 whole entry): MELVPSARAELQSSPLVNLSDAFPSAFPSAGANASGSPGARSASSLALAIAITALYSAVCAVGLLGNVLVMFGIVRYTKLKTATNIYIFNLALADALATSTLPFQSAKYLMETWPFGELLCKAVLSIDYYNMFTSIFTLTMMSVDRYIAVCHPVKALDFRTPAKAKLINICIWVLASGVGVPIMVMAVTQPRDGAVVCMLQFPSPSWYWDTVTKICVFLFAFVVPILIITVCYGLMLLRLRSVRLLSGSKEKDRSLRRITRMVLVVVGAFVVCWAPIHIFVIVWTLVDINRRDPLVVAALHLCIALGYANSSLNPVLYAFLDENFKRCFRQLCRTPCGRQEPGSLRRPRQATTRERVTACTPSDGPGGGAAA

One may read the IC50 as the concentration that gives 50% inhibition. For the compound `C[C@@H]1CN([C@H](c2ccc(-c3nnn[nH]3)cc2)c2cccc(O)c2)[C@@H](C)CN1Cc1ccccc1` [Example 4, (−)-5-{4-[(R)-α-(2(S),5(R)-4-benzyl-2,5-dimethyl-1-piperazinyl)-3-hydroxybenzyl]phenyl}-1H-tetrazole], the IC50 in series [1] was 0.0126 nM. `C=CCN1C[C@H](C)N([C@H](c2ccc(-c3nnn[nH]3)cc2)c2cccc(O)c2)C[C@H]1C` [Example 1, (+)-5-{4-[(R)-α-(2(S),5(R)-4-Allyl-2,5-dimethyl-1-piperazinyl)-3-hydroxybenzyl]phenyl}-1H-tetrazole]: in series [1], the IC50 was 0.2 nM.

For orientation: melting point means the temperature, or range, at which the solid turns liquid. In turn, `C=CCN1C[C@H](C)N([C@H](c2ccc(-c3nnn(CCOCC(=O)O)n3)cc2)c2cccc(O)c2)C[C@H]1C` yielded a melting point of 137 to 140 °C. Consider `C=CCN1C[C@H](C)N([C@H](c2ccc(-c3nnn(CCCCC(=O)O)n3)cc2)c2cccc(O)c2)C[C@H]1C` [Example 42, (+)-5-(5-{4-[(R)-α-(2(S),5(R)-4-Allyl-2,5-dimethyl-1-piperazinyl)-3-hydroxybenzyl]phenyl}-2-tetrazolyl)valeric Acid], for which the IC50 in series [1] is 0.316 nM.
